{"source": "patent US4387104A", "about": "“N-Substituted pyruvic acid hydrazones, preparation thereof and pharmaceutical compositions containing them” (Boehringer Mannheim GmbH, priority 1980, dated 1983)", "key": {"[1]": {"test_system": "fasting glycemia (blood-glucose concentration)", "test": "threshold dose of blood-sugar-lowering activity in fasting guinea pigs", "format": "in vivo", "conditions": "Cavia porcellus, ip; guinea pig, i.p., potassium salt, pH 7.4; significant lowering of fasting glycemia (p<0.05), N=4 per dose group", "description": "(§1) To establish the pharmacological properties of the compounds in accordance with the invention, blood-sugar-lowering activity and resorption inhibition were determined in separate tests and compared with two structurally related compounds.\nFasting guinea pigs were used as experimental model to determine the threshold dose of the blood-lowering activity of the substances to be investigated. Food was withheld from the individual animals used in the investigation for 16 hours prior to the start of the tests. The animals were kept unfed throughout the testing period but had free access to drinking water.\nThe substances were administered through intraperitoneal injection of a solution of the potassium salt at pH 7.4.\nA control group carried along in parallel was given an 0.9% NaCl solution.\nThe drawing of blood for determination of the glucose concentrations was effected immediately prior to administration of the substances and at one-hour intervals up to the fourth hour after the administration of the substances. To this end, an ear vein was carefully punctured with a No. 18 cannula, and the drops of blood issuing were picked up with a 10 μl capillary.\nThe blood-glucose concentration was determined in the hemolysate by the specific hexokinase method. To this end, the 10 μl blood sample was pipetted into a stabilizer solution containing digitonin as hemolysis accelerator and maleinimide as glycolysis inhibitor. Following this, an aliquot was taken from the hemolysate so obtained and determined by the hexokinase method on an LKB 8600 (made by LKB, Bromma, Sweden).\nThe dose which with the specified number of test animals per dose group (N=4) was just large enough to produce a significant lowering of fasting glycemia (p<0.05) was adopted as threshold dose."}, "glucose resorption": {"test_system": "glucose resorption", "test": "resorption-inhibiting activity (oral glucose loading) in fasting guinea pigs", "format": "in vivo", "conditions": "Cavia porcellus, PIG1, ip, guinea pig, 1 g glucose p.o., AUC difference vs control; for inhibition in vivo at 10 mg/kg: dose 10 mg/kg i.p.; for inhibition in vivo at 20 mg/kg: dose 20 mg/kg i.p.; for inhibition in vivo at 40 mg/kg: dose 40 mg/kg i.p.", "description": "as §1\nTo determine the effect on glucose resorption, oral glucose loading was effected. To this end, the substance to be tested was administered intraperitoneally as potassium salt, as described, to a group of ten fasting guinea pigs. At the same time, 1 g glucose was orally administered to the animals as a 20% solution by means of an esophageal bougie.\nAfter a preliminary value has been established, up to […] blood was taken from the animals at close (20-minute) intervals for determination of the glucose concentrations, as described.\nA control group carried along in parallel also was given 1 g glucose p.o., and intraperitoneally a corresponding amount of 0.9% NaCl solution.\nThe blood-glucose concentration was determined in the hemolysate by the hexokinase method, as described.\nWith regard to glucose resorption, the area under the concentration/time curve, calculated by means of the empirical trapeze formula, served as quantity to be measured. The difference in the area between the control and test groups, expressed in percent, was used as a measure for the inhibition of glucose resorption."}}, "data": [{"compound": "CC(=NNCCc1ccccc1)C(=O)O", "note": "[A, 2-(phenethylhydrazono)-propionic acid, reference compound]", "values": [{"measurement": "minimal effective dose", "setting": "[1]", "value": "10 to 15", "unit": "mg/kg"}, {"measurement": "inhibition in vivo at 10 mg/kg", "setting": "glucose resorption", "value": 0, "unit": "%"}]}, {"compound": "C=CCOCCNN=C(C)C(=O)O", "note": "[Example 3, 2-(2-Allyloxyethylhydrazono)-propionic acid]", "values": [{"measurement": "minimal effective dose", "setting": "[1]", "value": 25, "unit": "mg/kg"}, {"measurement": "inhibition in vivo at 20 mg/kg", "setting": "glucose resorption", "value": 9, "unit": "%"}]}, {"compound": "CC(=NNCCCOCc1ccccc1)C(=O)O", "note": "[Example 3e, 2-(3-benzyloxypropylhydrazono)-propionic acid]", "values": [{"measurement": "minimal effective dose", "setting": "[1]", "value": "> 50", "unit": "mg/kg"}, {"measurement": "inhibition in vivo at 40 mg/kg", "setting": "glucose resorption", "value": 44, "unit": "%"}]}, {"compound": "COCCOCCNN=C(C)C(=O)[O-].[Na+]", "note": "[Example 2a, sodium 2-[2-(2-methoxyethoxy)-ethylhydrazono]-propionate]", "values": [{"measurement": "minimal effective dose", "setting": "[1]", "value": "> 50", "unit": "mg/kg"}, {"measurement": "inhibition in vivo at 40 mg/kg", "setting": "glucose resorption", "value": 37, "unit": "%"}]}, {"compound": "COCCCCCCNN=C(C)C(=O)O", "note": "[Example 3a, 2-(6-methoxyhexylhydrazono)-propionic acid]", "values": [{"measurement": "minimal effective dose", "setting": "[1]", "value": 20, "unit": "mg/kg"}, {"measurement": "inhibition in vivo at 20 mg/kg", "setting": "glucose resorption", "value": 11, "unit": "%"}]}, {"compound": "COCCSCCNN=C(C)C(=O)O", "note": "[Example 3f, 2-[2-(2-methoxyethylthio)-ethylhydrazono]-propionic acid]", "values": [{"measurement": "minimal effective dose", "setting": "[1]", "value": 25, "unit": "mg/kg"}, {"measurement": "inhibition in vivo at 20 mg/kg", "setting": "glucose resorption", "value": 17.3, "unit": "%"}]}, {"compound": "CC(=NNCCOc1ccccc1)C(=O)O", "note": "[Example 1b, 2-(2-phenoxyethylhydrazono)-propionic acid]", "values": [{"measurement": "minimal effective dose", "setting": "[1]", "value": 25, "unit": "mg/kg"}, {"measurement": "inhibition in vivo at 40 mg/kg", "setting": "glucose resorption", "value": 98, "unit": "%"}]}, {"compound": "CC(=NNCCOc1ccc(C)cc1)C(=O)O", "note": "[Example 1, 2-(2-p-Tolyloxyethylhydrazono)-propionic acid]", "values": [{"measurement": "minimal effective dose", "setting": "[1]", "value": 25, "unit": "mg/kg"}, {"measurement": "inhibition in vivo at 40 mg/kg", "setting": "glucose resorption", "value": 25, "unit": "%"}]}, {"compound": "CC(=NNCCSc1ccccc1)C(=O)[O-].[Na+]", "note": "[Example 2d, sodium 2-(2-phenylthioethylhydrazono)-propionate]", "values": [{"measurement": "minimal effective dose", "setting": "[1]", "value": "25 to 50", "unit": "mg/kg"}, {"measurement": "inhibition in vivo at 40 mg/kg", "setting": "glucose resorption", "value": 33, "unit": "%"}]}, {"compound": "CCOCCCCCNN=C(C)C(=O)O", "note": "[Example 3b, 2-(5-ethoxypentylhydrazono)-propionic acid]", "values": [{"measurement": "minimal effective dose", "setting": "[1]", "value": "20 to 25", "unit": "mg/kg"}, {"measurement": "inhibition in vivo at 20 mg/kg", "setting": "glucose resorption", "value": 34, "unit": "%"}]}, {"compound": "C=CCSCCNN=C(C)C(=O)[O-].[Na+]", "note": "[Example 2c, sodium 2-(2-allylthioethylhydrazono)-propionate]", "values": [{"measurement": "minimal effective dose", "setting": "[1]", "value": "10 to 25", "unit": "mg/kg"}, {"measurement": "inhibition in vivo at 10 mg/kg", "setting": "glucose resorption", "value": 16, "unit": "%"}]}, {"compound": "CC(=NNCCC1CCCCC1)C(=O)O", "note": "[B, 2-(2-cyclohexylethylhydrazono)-propionic acid, reference compound]", "values": [{"measurement": "minimal effective dose", "setting": "[1]", "value": 15, "unit": "mg/kg"}, {"measurement": "inhibition in vivo at 15 mg/kg", "setting": "glucose resorption; dose 15 mg/kg i.p.", "value": 0, "unit": "%"}]}, {"compound": "CC(=NNCCOCc1ccccc1)C(=O)[O-].[Na+]", "note": "[Example 2b, sodium 2-(2-benzyloxyethylhydrazono)-propionate]", "values": [{"measurement": "minimal effective dose", "setting": "[1]", "value": "> 50", "unit": "mg/kg"}, {"measurement": "inhibition in vivo at 40 mg/kg", "setting": "glucose resorption", "value": 49.9, "unit": "%"}]}, {"compound": "CC(=NNCCOCCC1CCCCC1)C(=O)O", "note": "[Example 3d, 2-[2-(2-cyclohexylethoxy)-ethylhydrazono]-propionic acid]", "values": [{"measurement": "minimal effective dose", "setting": "[1]", "value": "> 50", "unit": "mg/kg"}, {"measurement": "inhibition in vivo at 40 mg/kg", "setting": "glucose resorption", "value": 15, "unit": "%"}]}]}
